According to patent US20250176554A1, “NON-TOXIC […] IN WHICH OZONE SYNERGIZE WITH CARBON DIOXIDE” (priority 2022, published 2025):

Key:
[1] = tested on: pests; conditions: 60% CO2, asparagus; cited from earlier work
[2] = tested on: pests; conditions: CO2 with 1.8 times of the standard atmospheric pressure; cited from earlier work
[3] = tested on: aphids; conditions: 10% CO2 in greenhouses; cited from earlier work
[4] = tested on: Icerya purchasi; assay: two-stage ozone then carbon dioxide fumigation, lethal rate by staining; type: in vivo
From the text: (§1) Step 1: Placing the pest control object into a sample bottle, which contains coccid insects, and sealing the sample bottle with a pore size of 10 um filter membrane. This configuration simulates the environment of insects or other creatures hiding deep inside fruits, within stems, or shielded by stacked fruit packages (this test was also validated using stacked sugar apples and wax apples, yielding similar results). The sample is then placed in a fumigation chamber.
(§2) Step 2: After closing the fumigation chamber, vacuuming the chamber to 0.2 bar-0.9 bar, then maintaining this lower pressure for about 2 minutes to confirm that the fumigation chamber is well sealed.
(§3) Step 3: Introducing ozone at a concentration ranging from 40 ppm to 160 ppm into the fumigation chamber until 1.0-1.7 bar, and fumigating for 3-20 minutes.
(§4) Step 4: Exhausting the gas from the fumigation chamber, then vacuuming it to 0.2-0.9 bar, and maintaining this low pressure for about 2 minutes.
(§5) Step 5: Introducing high-concentration carbon dioxide into the fumigation chamber until 1.0-1.7 bar, fumigating for 10-30 minutes.
(§6) Step 6: After the above pest control steps, exhausting the gases from the fumigation chamber and restoring the chamber to atmospheric pressure, then removing the tested objects.
(§7) Step 7: Spraying 0.5 wt % methylene blue aqueous solution (light blue) or 0.05 wt % neutral red staining solution (light red) onto the insects and waiting for 60 minutes. Well-stained insects indicate death. All values are expressed as mean±SD. ANOVA or other appropriate statistical analysis methods were used, with P<0.05 indicating a significant difference.
(§8) Using the same method as Embodiment 1, except that the concentration of the introduced ozone is adjusted (ranging from 40 ppm to 160 ppm). The pressure of the fumigation chamber in Step 2 is about 0.3 bar; in Step 3, it is about 1.3 bar, with the process lasting 5 minutes; in Step 4, it is about 0.3 bar; and in Step 5, the pressure is 1.3 bar, with the process lasting 15 minutes.
(§9) Using the same method as Embodiment 2, except that the evacuation pressure in Step 2 is adjusted (ranging from 0.2 bar to 0.9 bar); the concentration of the introduced ozone is approximately 70 ppm, and other parameters remain the same as those in Embodiment 2.
(§10) Using the same method as Embodiment 2, except that the ozone treatment duration in […] is adjusted (ranging from 3 to 30 minutes); the concentration of the introduced ozone is 70 ppm, and ozone is introduced until the pressure reaches 1.0 bar. Other parameters remain the same as those in Embodiment 2.
(§11) Using the same method as Embodiment 1, except that the treatment period of carbon dioxide is adjusted to 10-50 minutes. The evacuation pressure in the fumigation chamber in Step 2 is 0.3 bar. In Step 3, the pressure after the ozone input is controlled within 1.0-1.4 bar, and the pest-control treatment is conducted for 5 minutes. In Step 4, the fumigation chamber is evacuated to 0.3 bar. In Step 5, the pressure after the input of carbon dioxide (99.5% concentration) is controlled at 1.4 bar, and the pest-control treatment is conducted for 10-50 minutes.

[5] = tested on: Pseudococcidae; assay: as above; type: in vivo
From the text: as §1, §2, §3, §4, §5, §6, §7, §8, §9, §10, §11

[6] = tested on: red flour beetle; conditions: pressurized CO2, 5 times to 15 times of the standard atmospheric pressure; cited from earlier work
[7] = tested on: dried apricot pests; conditions: CO2 under 0.5 times atmospheric pressure; cited from earlier work
[8] = tested on: mite eggs; conditions: vacuum pumping then 60% CO2, normal temperature and normal pressure, at least 16 hours; cited from earlier work
[9] = tested on: silkworm eggs; assay: ozone then carbon dioxide fumigation of silkworm eggs, hatching; type: in vivo; conditions: ozone pressure 1.4 bar; carbon dioxide introduced for 20 minutes
Procedure: as §11
Using the same experimental conditions as Embodiment 5, when the ozone pressure is 1.4 bar, silkworm eggs were used for testing.

[10] = tested on: coccid insects; assay: two-stage ozone then carbon dioxide fumigation, text statements on the insects/pests; type: in vivo
From the text: as §1, §2, §3, §4, §5, §6, §7

[11] = ozone at 1.0 bar 5 min, evacuation 0.3 bar, CO2 99.5% at 1.4 bar for 10 min
[12] = ozone at 1.0 bar 5 min, evacuation 0.3 bar, CO2 99.5% at 1.4 bar for 15 min
[13] = ozone at 1.0 bar 5 min, evacuation 0.3 bar, CO2 99.5% at 1.4 bar for 20 min
[14] = ozone at 1.0 bar 5 min, evacuation 0.3 bar, CO2 99.5% at 1.4 bar for 30 min
[15] = ozone at 1.0 bar 5 min, evacuation 0.3 bar, CO2 99.5% at 1.4 bar for 40 min
[16] = ozone at 1.4 bar 5 min, evacuation 0.3 bar, CO2 99.5% at 1.4 bar for 10 min
[17] = ozone at 1.4 bar 5 min, evacuation 0.3 bar, CO2 99.5% at 1.4 bar for 15 min
[18] = ozone at 1.4 bar 5 min, evacuation 0.3 bar, CO2 99.5% at 1.4 bar for 20 min
[19] = ozone at 1.4 bar 5 min, evacuation 0.3 bar, CO2 99.5% at 1.4 bar for 30 min
[20] = ozone at 1.4 bar 5 min, evacuation 0.3 bar, CO2 99.5% at 1.4 bar for 40 min
[21] = Step 2 vacuumed pressure 0.2 bar, ozone 70 ppm to 1.3 bar 5 min, then CO2 1.3 bar 15 min
[22] = Step 2 vacuumed pressure 0.3 bar, ozone 70 ppm to 1.3 bar 5 min, then CO2 1.3 bar 15 min
[23] = Step 2 vacuumed pressure 0.4 bar, ozone 70 ppm to 1.3 bar 5 min, then CO2 1.3 bar 15 min
[24] = Step 2 vacuumed pressure 0.5 bar, ozone 70 ppm to 1.3 bar 5 min, then CO2 1.3 bar 15 min
[25] = Step 2 vacuumed pressure 0.6 bar, ozone 70 ppm to 1.3 bar 5 min, then CO2 1.3 bar 15 min
[26] = Step 2 vacuumed pressure 0.9 bar, ozone 70 ppm to 1.3 bar 5 min, then CO2 1.3 bar 15 min
[27] = ozone 40 ppm to 1.3 bar 5 min, evacuation 0.3 bar, then CO2 1.3 bar 15 min
[28] = ozone 70 ppm to 1.0 bar for 3 min, evacuation 0.3 bar, then CO2 1.3 bar 15 min
[29] = ozone 70 ppm to 1.0 bar for 5 min, evacuation 0.3 bar, then CO2 1.3 bar 15 min
[30] = ozone 70 ppm to 1.0 bar for 10 min, evacuation 0.3 bar, then CO2 1.3 bar 15 min
[31] = ozone 70 ppm to 1.0 bar for 15 min, evacuation 0.3 bar, then CO2 1.3 bar 15 min
[32] = ozone 70 ppm to 1.0 bar for 20 min, evacuation 0.3 bar, then CO2 1.3 bar 15 min
[33] = ozone 70 ppm to 1.0 bar for 30 min, evacuation 0.3 bar, then CO2 1.3 bar 15 min
[34] = ozone 70 ppm to 1.3 bar 5 min, evacuation 0.3 bar, then CO2 1.3 bar 15 min
[35] = ozone 100 ppm to 1.3 bar 5 min, evacuation 0.3 bar, then CO2 1.3 bar 15 min
[36] = ozone 130 ppm to 1.3 bar 5 min, evacuation 0.3 bar, then CO2 1.3 bar 15 min
[37] = ozone 160 ppm to 1.3 bar 5 min, evacuation 0.3 bar, then CO2 1.3 bar 15 min

For O=C=O [CO2, carbon dioxide], the “time required to achieve minimal pest control” value [1] is given as “more than 48 hours”, the “time required to achieve the minimal pest control” value [2] is given as “at least 120 minutes” and the “time required to achieve minimal pest control effects” value [3] is given as “one week”. The Lethal rate [4, 11] was 72 ± 11%, the Lethal rate [4, 12] was 88 ± 11% and the Lethal rate [4, 13] was 97 ± 4%. It also gave a Lethal rate [4, 14] of 100 ± 0%, a Lethal rate [4, 15] of 100 ± 0% and a Lethal rate [4, 16] of 92 ± 11%. For the same compound, the Lethal rate [4, 17] was 100 ± 0%, the Lethal rate [4, 18] was 100 ± 0% and the Lethal rate [4, 19] was 100 ± 0%. The Lethal rate [4, 20] was 100 ± 0%, the Lethal rate [5, 11] was 81 ± 6% and the Lethal rate [5, 12] was 91 ± 8%. It also gave a Lethal rate [5, 13] of 100 ± 1%, a Lethal rate [5, 14] of 100 ± 0% and a Lethal rate [5, 15] of 100 ± 0%. It also gave a Lethal rate [5, 16] of 89 ± 8%, a Lethal rate [5, 17] of 100 ± 1% and a Lethal rate [5, 18] of 100 ± 0%. The Lethal rate [5, 19] was 100 ± 0%, the Lethal rate [5, 20] was 100 ± 0% and the “time required to kill most of the pests” value [6] was “at least 1.8 days”. For the same compound, the “time required to kill 90% of pests” value [7] was “over 24 hours” and the “mortality of mite eggs” value [8] was 89%.

In the case of ozone and carbon dioxide, the “hatching of silkworm eggs” value [9] is reported as “none of the silkworm eggs in the experimental group hatched”, the “time to completely kill the pests” value ([10]; ozone 5 minutes at 1.0 bar, in synergy with carbon dioxide) is reported as “about 30 minutes” and the “time to completely kill the pests” value ([10]; ozone 5 minutes at 1.4 bar, then carbon dioxide) is reported as 15 min. For the same compound, the “pest control / pest elimination” value ([10]; two-stage fumigation, within 20 minutes) was 100%.

For O=[O+][O-] [ozone], the Lethal rate [4, 21] was 100 ± 0%, the Lethal rate [4, 22] was 96 ± 3% and the Lethal rate [4, 23] was 85 ± 12%. It also gave a Lethal rate [4, 24] of 68 ± 17%, a Lethal rate [4, 25] of 48 ± 16% and a Lethal rate [4, 26] of 37 ± 18%. It also gave a Lethal rate [4, 27] of 76 ± 10%, a Lethal rate [4, 28] of 64 ± 14% and a Lethal rate [4, 29] of 68 ± 9%. The Lethal rate [4, 30] was 87 ± 9%, the Lethal rate [4, 31] was 100 ± 1% and the Lethal rate [4, 32] was 100 ± 0%. It also gave a Lethal rate [4, 33] of 100 ± 0%, a Lethal rate [4, 34] of 98 ± 3% and a Lethal rate [4, 35] of 100 ± 0%. It also gave a Lethal rate [4, 36] of 100 ± 0%, a Lethal rate [4, 37] of 100 ± 0% and a Lethal rate [5, 21] of 100 ± 0%. For the same compound, the Lethal rate [5, 22] was 91 ± 5%, the Lethal rate [5, 23] was 82 ± 10% and the Lethal rate [5, 24] was 71 ± 13%. For the same compound, the Lethal rate [5, 25] was 52 ± 14%, the Lethal rate [5, 26] was 30 ± 17% and the Lethal rate [5, 27] was 81 ± 11%. For the same compound, the Lethal rate [5, 28] was 61 ± 16%, the Lethal rate [5, 29] was 71 ± 10% and the Lethal rate [5, 30] was 91 ± 7%. The Lethal rate [5, 31] was 100 ± 0%, the Lethal rate [5, 32] was 100 ± 0% and the Lethal rate [5, 33] was 100 ± 0%. It also gave a Lethal rate [5, 34] of 93 ± 7%, a Lethal rate [5, 35] of 100 ± 0% and a Lethal rate [5, 36] of 100 ± 0%. The Lethal rate [5, 37] was 100 ± 0%, the Lethal rate ([10]; ozone 70 ppm, 90 minutes after the treatment in Step 3) was 100% and the final lethal rate ([10]; vacuum pressure 0.4 or 0.5 bar, ozone 70 ppm, after 90 minutes of ozone treatment) was 100%.
